According to patent US20240043476A1, “ANTI-TUMOR PEPTIDE AND USE THEREOF” (National University Corporation Hokkaido University, priority 2020, published 2024):

Legend:
[1] = test system: human prostate cancer cell line DU145; assay: Inhibition of proliferation of prostate cancer cell line DU145 (CellTiter Glo luminescence); assay type: cell-based; details: DU145 cells; for inhibitory activity against cell proliferation: cell-penetrating peptide substituted or removed, same way as Example 2; for cell proliferation (without synthetic peptide set to 100): final concentration 30 μM
Method: (§1) Human prostate cancer cell line DU145 was cultured in DMEM containing 10% fetal cattle serum (FCS) at 37° C. and 5% CO2 with passaging. DU145 cells were seeded into 96-well plates at 5000 cells/well, then cultured at 37° C. for 24 hours, and then further cultured for 48 hours in 10% FCS-containing DMEM that contains each of the synthesized peptides of Example 1 at a final concentration of 1 μM, 10 μM, 50 μM or 100 μM. The medium was discarded after culturing, and then 25 μL of 50-fold diluted solution of CellTiter Glo Reagent (Promega) (diluted with PBS (−) containing 0.1% NP-40) was added to each well. Next, the resulting solution was shaken at room temperature for 10 minutes, and then luminescence level was measured with a plate reader (Infinite M200, Tecan). A relative luminescence level of each synthetic peptide was calculated when the average luminescence level measured for control cells cultured in 10% FCS-containing DMEM without any synthetic peptide was set to 100, and was used as an index of cell proliferation.
The peptides listed in Table 2 below were designed and evaluated for their inhibitory activities against proliferation of DU145 cells in the same way as in Example 2. Each of the peptides 4T-2-D-1-4, 4H-2-D-1-4 and 4F-2-D-1-4 is a peptide in which the octaarginine sequence of the peptide 42-D-1-4 is substituted with an amino acid sequence of another cell-penetrating peptide, and each has, from the N-terminal side, an amino acid sequence of TAT peptide, HTLV-II-Rex or FHV coat (35-49), a linker sequence of one Gly residue, and an amino acid sequence corresponding to G45-Y51 of the PH domain. The peptides #R8(−)-2-D-1, #R8(−)-2-D-1-4 and #R8(−)-6-A-2 are peptides with the octaarginine sequence and the linker sequence removed from the peptides #2-D-1, #2-D-1-4 and #6-A-2, respectively.
The peptides listed in Table 3 below were designed and evaluated for their inhibitory activities against proliferation of DU145 cells, in the same way as in Example 2 except that the final concentrations of the synthetic peptides were set to 3 μM, 10 μM and 30 μM. The peptides #2-D-1-4-1A to #2-D-1-4-7A are peptides in which GLTIYFY (SEQ ID NO: 36) of peptide #2-D-1-4 was substituted with Ala one by one from the N-terminal side.

[2] = test system: human cervical cancer cell line HeLa; assay: Inhibition of proliferation of HeLa cells; assay type: cell-based; details: same manner as Example 2
[3] = test system: human liver cancer cell line Hep3B; assay: Inhibition of proliferation of Hep3B cells; assay type: cell-based; details: same manner as Example 2
[4] = test system: human lung cancer cell line A549; assay: Inhibition of proliferation of A549 cells; assay type: cell-based; details: A549, same manner as Example 2
[5] = test system: human glioma cell line U251; assay: Inhibition of proliferation of U251 cells; assay type: cell-based; details: U251, same manner as Example 2
[6] = test system: human melanoma cell line A375; assay: Inhibition of proliferation of A375 cells; assay type: cell-based; details: A375, same manner as Example 2
Method: as §1, with “proliferation. […]” for “proliferation.”

[7] = test system: human pancreatic cancer cell line BxPC3; assay: Inhibition of proliferation of BxPC3 cells; assay type: cell-based; details: BxPC3, same manner as Example 2
[8] = test system: human breast cancer cell line T47D; assay: Inhibition of proliferation of T47D cells; assay type: cell-based; details: cultured 96 hours with peptide
Cyclin D1 (Ccnd1) = assay: Real-time PCR of Cyclin D1 gene expression in DU145 cells; assay type: cell-based, human; details: peptide 10 μM, 15 and 30 minutes
Method: (§2) DU145 cells, cultured in DMEM containing 10% fetal cattle serum (FCS) at 37° C. and 5% CO2 with passage, were seeded into 6-well plates at 5.0×10^5 cells/well, and then cultured at 37° C. for 24 hours. The cells were incubated for 2 hours in serum-free DMEM. Then, the synthetic peptide #2-D-1-4 (final concentration 10 μM) was added, and cells were collected 15 minutes later and 30 minutes later. Cells without addition of any synthetic peptide were prepared in the same way.
(§3) Total RNA was extracted from the cells with use of TRIzol (Thermo Fisher Scientific). cDNA was synthesized from the total RNA with use of ReverTra Ace (TOYOBO) and random hexamer primers. Real-time PCR was carried out with the following primer sets and MX3000P (Agilent Technologies, Inc.) to measure the relative gene expression levels of Cyclin D1 (Ccnd1), which is associated with cell proliferation, and Survivin, which is associated with cancer cell survival.

Survivin = assay: Real-time PCR of Survivin gene expression in DU145 cells; assay type: cell-based, human; details: peptide 10 μM, 15 and 30 minutes
Method: as §2, §3

[9] = biological target: T1, EGFR/STAP-2 interaction (EGFR-HA and GST-STAP-2) (Homo sapiens, UniProt P00533, C187G/DEL142-186); assay: GST pull-down and immunoblot of EGFR/STAP-2 interaction; assay type: binding; details: HEK293T lysate, peptide 1 μM or 50 μM, 4° C. 1 hour
T1 construct: expressed in transfected cells; host or cells: HEK293T

DU145 cells = assay: Antitumor effect in DU145 tumor-bearing model; assay type: in vivo, BALB/c nude mice; details: 2 mg/body intratumoral
Method: DU145 cells (5.0×10^6 cells) were injected subcutaneously into right flank of BALB/c nude mice (female, 4 weeks old). On days 14, 17 and 20 after implantation, solvent (5% DMSO, control) or the synthetic peptide #2-D-1-4 (2 mg/body) was intratumorally administered. Tumor diameters were measured with calipers every 3 days starting on day 14 after implantation, and tumor volumes (longer diameter×shorter diameter×shorter diameter/2) were calculated. The mice were euthanized on day 32 after implantation, then tumor mass were collected and their weights were measured.

With TRRQRTRRARRNRGGLTIYFY [#H-2-D-1-4] as the substance, how does the “inhibitory activity against cell proliferation” value (from here on “inhibitory activity”) [1] read?
Its value is “the same extent of inhibitory activity against cell proliferation as that of the peptide #2-D-1-4”.

RRRRNRTRRNRRRVRGGLTIYFY [#F-2-D-1-4] was tested. Which “inhibitory activity” value [1] did it give?
Its value is “the same extent of inhibitory activity against cell proliferation as that of the peptide #2-D-1-4”.

For GLTIYFY [#R8(−)-2-D-1-4], which “inhibitory activity” value [1] is on record?
Its value is “none”.

For VVELRVP [#R8(−)-6-A-2], which “inhibitory activity” value [1] is on record?
Its value is “none”.

Which “inhibitory activity” value [1] does the source give for GRKKRRQRRRPPQGGLTIYFY [#T-2-D-1-4] here?
The value was “the same extent of inhibitory activity against cell proliferation as that of the peptide #2-D-1-4”.

For “RRRRRRRRGG GLTIYFY (RRRRRRRRGGGLTIYFY) [#2-D-1-4]”, which “activity to inhibit proliferation” value [2] is on record?
Its value is “exhibited the activity to inhibit proliferation”.

What about the “activity to inhibit proliferation” value [3] of the same substance?
Its value is “exhibited the activity to inhibit proliferation”.

What about the “activity to inhibit proliferation” value [4] of the same substance?
The value was “exhibited the activity to inhibit proliferation”.

And the “activity to inhibit proliferation” value [5]?
The value was “exhibited the activity to inhibit proliferation”.

And the “activity to inhibit proliferation” value [6]?
The value was “exhibited the activity to inhibit proliferation”.

What about the “activity to inhibit proliferation” value [7] of the same substance?
Its value is “exhibited the activity to inhibit proliferation”.

And the “activity to inhibit proliferation” value [8]?
The value was “exhibited the activity to inhibit proliferation”.

And the “gene expression level of Ccnd1” value (Cyclin D1 (Ccnd1))?
The value was “reduced”.

And the “gene expression level of Survivin” value (Survivin)?
Its value is “reduced”.

What about the “complex between EGFR-HA and GST-STAP-2 in pull-down fraction” value [9] of the same substance?
The value was “not detected”.

And the “final weight of the tumor mass compared to the control” value (DU145 cells; days 14, 17 and 20, day 32 after implantation)?
Its value is “significant reduction”.

What about the “tumor volume compared to the control” value (DU145 cells; days 14, 17 and 20 after implantation) of the same substance?
Its value is “inhibition of increase in tumor volume”.

“RRRRRRRRGG GATIYFY (RRRRRRRRGGGATIYFY) [#2-D-1-4-2A]” was tested. Which “cell proliferation (without synthetic peptide set to 100)” value [1] did it give?
The value was “approximately 50%”.

How did the “cell proliferation (without synthetic peptide set to 100)” value [1] turn out when “RRRRRRRRGG GLAIYFY (RRRRRRRRGGGLAIYFY) [#2-D-1-4-3A]” was run?
The value was “approximately 50%”.

With “RRRRRRRRGG GLTIYAY (RRRRRRRRGGGLTIYAY) [#2-D-1-4-6A]” as the substance, how does the “cell proliferation (without synthetic peptide set to 100)” value [1] read?
The value was “approximately 50%”.

For QGLTIYFYN [#R8(−)-2-D-1], which “inhibitory activity” value [1] is on record?
Its value is “none”.
